Results reported in patent publication US8946439B2, “Amide compounds, compositions and uses thereof” (Evotec AG, priority 2008, dated 2015).
Where two headings read alike, the source gives them in different places.

Experiments:
hP2X2/3H = target: T1, hP2X2/3H (Homo sapiens, UniProt P56373+Q9UBL9); test: Calcium uptake assay (P2X antagonist assay), P2X2/3 heteromer; assay type: cell-based; conditions: hP2X2/3H
T1 construct: expressed in transfected cells; host or cells: e.g. HEK293 or 1321N1
T1 sequence (Q9UBL9 1-471): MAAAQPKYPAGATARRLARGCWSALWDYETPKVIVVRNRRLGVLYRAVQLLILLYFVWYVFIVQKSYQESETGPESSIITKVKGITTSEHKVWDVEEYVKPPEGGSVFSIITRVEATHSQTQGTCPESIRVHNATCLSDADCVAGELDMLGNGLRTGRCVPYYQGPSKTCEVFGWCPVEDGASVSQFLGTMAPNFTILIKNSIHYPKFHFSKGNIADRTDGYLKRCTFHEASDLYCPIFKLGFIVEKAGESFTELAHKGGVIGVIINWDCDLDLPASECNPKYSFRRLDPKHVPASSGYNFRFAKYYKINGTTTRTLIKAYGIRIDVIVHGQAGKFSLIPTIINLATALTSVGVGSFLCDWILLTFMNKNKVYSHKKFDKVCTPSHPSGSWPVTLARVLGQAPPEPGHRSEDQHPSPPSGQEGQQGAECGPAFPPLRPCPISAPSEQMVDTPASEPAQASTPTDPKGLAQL
T1 sequence (P56373 1-397): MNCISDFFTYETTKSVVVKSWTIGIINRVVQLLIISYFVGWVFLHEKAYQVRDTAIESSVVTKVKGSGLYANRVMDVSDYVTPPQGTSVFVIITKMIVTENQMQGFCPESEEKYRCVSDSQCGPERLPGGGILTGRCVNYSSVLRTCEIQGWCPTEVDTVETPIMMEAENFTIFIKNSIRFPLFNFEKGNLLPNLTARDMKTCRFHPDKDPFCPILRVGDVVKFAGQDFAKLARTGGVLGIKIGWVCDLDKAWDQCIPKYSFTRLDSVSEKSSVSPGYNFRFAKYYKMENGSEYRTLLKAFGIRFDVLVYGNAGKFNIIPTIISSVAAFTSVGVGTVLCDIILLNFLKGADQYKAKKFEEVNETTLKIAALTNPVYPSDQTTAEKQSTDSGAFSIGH
Outline: (§1)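 Stably or transiently transfected HEK293 or 1321N1 cells; the heteromer is made by adding P2X3 to a P2X2-stable line, with heteromer function isolated pharmacologically. The peak-minus-baseline FLIPR calcium signal gives % inhibition and a 4-parameter-logistic IC50.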

hP2X3 = target: T2, hP2X3 (Homo sapiens, UniProt P56373); test: Calcium uptake assay (P2X antagonist assay), P2X3 homomer; assay type: cell-based; conditions: hP2X3
T2 construct: expressed in transfected cells; host or cells: e.g. HEK293 or 1321N1
T2 sequence (P56373 1-397): T1 sequence (P56373 1-397)
Outline: as §1

[1] = calcium uptake assay, read-out: IC50 hP2X2/3H (nM), Ca Influx
[2] = calcium uptake assay, read-out: IC50 hP2X3 (nM), Ca Influx
[3] = Ca influx (calcium uptake assay), read-out: IC50 hP2X2/3H
[4] = Ca influx (calcium uptake assay), read-out: IC50 hP2X3

Compound | IC50 (hP2X2/3H; [1]) | IC50 (hP2X3; [2]) | IC50 (hP2X2/3H; [3]) | IC50 (hP2X3; [4])
Cc1ccc(-c2cc(C(=O)NCc3ccc(C)nc3)cc(C(=O)N3CC(O)C3)c2)c(C#N)c1 [Compound 63, 2′-Cyano-5-(3-hydroxyazetidine-1-carbonyl)-4′-methyl-N-((6-methylpyridin-3-yl)methyl)biphenyl-3-carboxamide] | < 100 nM | < 100 nM | – | –
Cc1ccc(-c2cc(C(=O)NCc3ncc(C(F)(F)F)cc3Cl)cc(S(C)(=O)=O)c2)nc1 [Compound 350] | – | – | 100 to 500 nM | < 100 nM
Cc1ccc(-c2cc(C(=O)NC(C)c3ccc(C)nc3)cc(C(=O)N3CCCC3)c2)cc1 (centres unmarked) [Compound 103] | < 100 nM | < 100 nM | – | –
Cc1ccc(CNC(=O)c2cc(-c3ccc(Cl)cc3)cc(S(C)(=O)=O)c2)cn1 [Compound 138] | 100 to 500 nM | 100 to 500 nM | – | –
Cc1ccc(-c2cc(Oc3nccs3)cc(C(=O)NCc3cnc(C)nc3)c2)cc1 [Compound 237] | – | – | 100 to 500 nM | < 100 nM
Cc1ccc(-c2cc(C(=O)N[C@H](CCO)c3ccc(C)nc3)cc(C(=O)N(C)CC(C)C)c2)cc1 [Compound 13, (R)—N3-(3-Hydroxy-1-(6-methylpyridin-3-yl)propyl)-N5-isobutyl-N5,4′-dimethylbiphenyl-3,5-dicarboxamide] | 100 to 500 nM | 100 to 500 nM | – | –
Cc1ccc(-c2cc(S(=O)(=O)N3CCCC3)cc(C(=O)NCc3cnc(C)nc3)c2C)cc1 [Compound 67, 2,4′-Dimethyl-N-((2-methylpyrimidin-5-yl)methyl)-5-(pyrrolidin-1-ylsulfonyl)biphenyl-3-carboxamide] | > 1000 nM | < 100 nM | – | –
Cc1ccc(-c2cc(C(=O)N[C@H](C)c3ccc(C)nc3)cc(S(C)(=O)=O)c2)cc1 [Compound 171] | < 100 nM | < 100 nM | – | –
Cc1ccc(-c2cc(Oc3nccs3)cc(C(=O)NCc3ccc(C)nc3)c2)cc1 [Compound 238] | – | – | 100 to 500 nM | 100 to 500 nM
Cc1ccc(-c2cc(Oc3nc4ccccc4s3)cc(C(=O)N[C@H](C)c3ccc(C)nc3)c2)nc1 [Compound 376] | – | – | < 100 nM | < 100 nM
Cc1ccc(-c2cc(OC(C)CO)cc(C(=O)N[C@H](C)c3ccc(C)nc3)c2)nc1 (some centres unmarked) [Compound 345] | – | – | < 100 nM | < 100 nM
COCC(OC)c1cc(C(=O)N[C@H](C)c2ccc(C)nc2)cc(-c2ccc(C)cc2)c1 (some centres unmarked) [Compound 380] | – | – | < 100 nM | < 100 nM
Cc1ccc(-c2cc(C(=O)NCc3cnc(C)nc3)cc(C(=O)N3CCOCC3)c2)cc1 [Compound 24] | 100 to 500 nM | < 100 nM | – | –
COc1ncc(CNC(=O)c2cc(C(=O)N3CCCC3)cc(-c3ccc(C)cc3)c2)c(N)n1 [Compound 79] | 501 to 1000 nM | 100 to 500 nM | – | –
Cc1ccc(-c2cc(C(=O)NC(C)c3csc(C)n3)cc(C(=O)N3CCCC3)c2)cc1 (centres unmarked) [Compound 111, 4′-Methyl-N-(1-(2-methylthiazol-4-yl)ethyl)-5-(pyrrolidine-1-carbonyl)biphenyl-3-carboxamide] | 100 to 500 nM | < 100 nM | – | –
Cc1ccc(-c2cc(Oc3ccccn3)cc(C(=O)N[C@H](C)c3ccc(C)nc3)c2)c(C#N)c1 [Compound 259] | – | – | < 100 nM | < 100 nM
Cc1ccc(CNC(=O)c2cc(-c3ccc(Cl)c(C(F)(F)F)c3)cc(S(C)(=O)=O)c2)cn1 [Compound 139] | > 1000 nM | > 1000 nM | – | –
Cc1ccc(-c2cc(C(=O)N[C@H](C)c3ccc(C)nc3)cc(C(O)c3ccccn3)c2)cc1 (stereo partly drawn) [Compound 241, 5-(Hydroxy(pyridin-2-yl)methyl)-4′-methyl-N—((R)-1-(6-methylpyridin-3-yl)ethyl)biphenyl-3-carboxamide] | – | – | < 100 nM | < 100 nM
Cc1ccc(-c2cc(C(=O)NCc3ccc(C)c(S(C)(=O)=O)c3)cc(S(C)(=O)=O)c2)cc1 [Compound 36] | < 100 nM | < 100 nM | – | –
COc1ncc([C@@H](C)NC(=O)c2cc(C(=O)N3CC(O)C3)cc(-c3ccc(C)cc3)c2)cn1 [Compound 84] | 100 to 500 nM | < 100 nM | – | –
COCCOc1cc(C(=O)N[C@H](C)c2ccc(C)nc2)cc(-c2ccc(C)cn2)c1 [Compound 265] | – | – | 100 to 500 nM | < 100 nM
Cc1ccc(-c2cc(C(=O)NC(C)c3ccc(Cl)c(S(C)(=O)=O)c3)cc(S(C)(=O)=O)c2)nc1 (centres unmarked) [Compound 371] | – | – | 100 to 500 nM | < 100 nM
